The structures appear in SMILES notation.

This test has as its system H1975-OR xenografts. Nature of the test: H1975-OR xenograft tumor growth. It is filed as in vivo, mice. As to conditions: osimertinib p.o. 5 mg/kg daily, NGI-189 i.p. 10 mg/kg every other day.

With `C=CC(=O)Nc1cc(Nc2nccc(-c3cn(C)c4ccccc34)n2)c(OC)cc1N(C)CCN(C)C` [osimertinib], the tumor response entry is “did not respond”.

Source of the values: PMC11643024 (bioRxiv, 2024).
